The values below come from PubChem BioAssay (NCI).

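Results reflect a 48-hour exposure of cells in 96-well plates to compound at five concentrations. At the TGI there is no net growth.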

Some test systems named below: BT-549 breast; MDA-N; SF-295 CNS; SN12C renal; PC-3 prostate; HOP-92 NSCLC; 786-0 renal; CAKI-1 renal; HCT-15 colon.
What all share (assay): growth of human tumour cells (NCI), 48 h

For the compound `COc1cc(C)c(/C=C2/N=C(c3ccccc3)OC2=O)c([N+](=O)[O-])c1OC`, the TGI in the test with BT-549 breast, in the test with MDA-N, in the test with SF-295 CNS, in the test on SN12C renal, with PC-3 prostate and with HOP-92 NSCLC was more than 100 µM throughout. Also, the TGI with 786-0 renal, in the test with CAKI-1 renal and with HCT-15 colon was more than 100 µM each time.
Take `Cc1cc(Cl)nc2nc(Cl)c(N)cc12`: the TGI was 28.4 µM in the test with BT-549 breast; 3.63 µM in the test on MDA-N; 29.9 µM in the test on SF-295 CNS; 3.21 µM in the test on SN12C renal; 30.4 µM in the test on PC-3 prostate; 4.46 µM in the test with HOP-92 NSCLC. The TGI with 786-0 renal worked out at 10.5 µM; with CAKI-1 renal, 0.871 µM; in the test on HCT-15 colon it was 4.6 µM.
In the case of `N#CC1(C#N)NC(c2ccccc2)C(C#N)(C#N)NC1c1ccccc1` (stereo not given), the TGI in the test on BT-549 breast, with MDA-N, with SF-295 CNS, in the test with SN12C renal, with PC-3 prostate and in the test on HOP-92 NSCLC was more than 100 µM throughout. Further, the TGI in the test on 786-0 renal, in the test with CAKI-1 renal and in the test on HCT-15 colon was more than 100 µM throughout.
Take `COc1cc2c(c(OC)c1OC)C(=O)[C@@H]1[C@H]2N1C(=O)NCCCl`: the TGI in the test on BT-549 breast, in the test with MDA-N, with SF-295 CNS, with SN12C renal, in the test with PC-3 prostate and in the test with HOP-92 NSCLC was more than 100 µM each time. In addition, the TGI in the test with 786-0 renal, in the test with CAKI-1 renal and in the test with HCT-15 colon was more than 100 µM throughout.
For the compound `Cc1cc(S(=O)(=O)N2CCNNC2=O)c(S)cc1Cl`, the TGI with BT-549 breast was 64.2 µM; in the test on MDA-N it was more than 100 µM; in the test on SF-295 CNS, more than 100 µM; in the test on SN12C renal, more than 100 µM; in the test with PC-3 prostate, more than 100 µM; in the test with HOP-92 NSCLC, more than 100 µM. The TGI was 43 µM with 786-0 renal, more than 100 µM in the test on CAKI-1 renal and more than 100 µM in the test with HCT-15 colon.
For `CC(O)C1(CNc2cc(Cl)nc(N)n2)CCCCC1` (stereo not given), the TGI in the test with BT-549 breast, in the test on MDA-N, in the test on SF-295 CNS, in the test with SN12C renal, with PC-3 prostate and with HOP-92 NSCLC was more than 100 µM throughout. Also, the TGI in the test with 786-0 renal, with CAKI-1 renal and in the test with HCT-15 colon was more than 100 µM throughout.
In the case of `COCCN(CCNC(=O)c1cccc2c(N)c3cccc(C)c3nc12)CCOC`, the TGI was 20.3 µM with BT-549 breast; 2.75 µM with MDA-N; more than 22.9 µM with SF-295 CNS; 6.54 µM with SN12C renal; 8.9 µM in the test with PC-3 prostate; more than 57.7 µM in the test on HOP-92 NSCLC. The TGI in the test with 786-0 renal was 8.62 µM; with CAKI-1 renal it was 4.49 µM; in the test on HCT-15 colon, 13 µM.
For the compound `CC(Oc1ccccc1Cl)C(=O)NN1C(=O)CC(=O)N(c2ccccc2)C1=S` (stereo not given), the TGI was more than 100 µM in the test on BT-549 breast; more than 100 µM in the test on MDA-N; more than 100 µM in the test with SF-295 CNS; more than 100 µM with SN12C renal; more than 100 µM in the test on PC-3 prostate; 68.8 µM in the test with HOP-92 NSCLC. In addition, the TGI in the test with 786-0 renal, with CAKI-1 renal and in the test on HCT-15 colon was more than 100 µM each time.
In the case of `CC1(C)[C@@H]2C[C@H]1[C@@H](Cc1cccc(C[C@H]3c4cc(-c5ccccn5)ncc4[C@H]4C[C@@H]3C4(C)C)c1)c1cc(-c3ccccn3)ncc12`, the TGI is more than 100 µM in the test with BT-549 breast; more than 100 µM with MDA-N; more than 100 µM with SF-295 CNS; more than 29.9 µM in the test on SN12C renal; more than 100 µM with PC-3 prostate; 83.4 µM with HOP-92 NSCLC. The TGI in the test on 786-0 renal was more than 47.6 µM; in the test on CAKI-1 renal, 17 µM; with HCT-15 colon, more than 100 µM.
For the compound `COC(=O)C1CCN(C(=O)OC(C)(C)C)CC1`, the TGI with BT-549 breast, in the test on MDA-N, with SF-295 CNS, in the test on SN12C renal, with PC-3 prostate and with HOP-92 NSCLC was more than 100 µM throughout. Besides, the TGI in the test on 786-0 renal, with CAKI-1 renal and with HCT-15 colon was more than 100 µM in each case.
In the case of `OC1c2ccccc2CCC1CN1CCN(CCOC(c2ccc(F)cc2)c2ccc(F)cc2)CC1` (stereo not given), the TGI in the test with BT-549 breast is 25.1 µM; with MDA-N, 36.3 µM; in the test with SF-295 CNS, 46.1 µM; with SN12C renal, 27.3 µM; in the test with PC-3 prostate, more than 100 µM; with HOP-92 NSCLC it was 24.4 µM. In addition, the TGI was 25 µM in the test on 786-0 renal, more than 100 µM in the test with CAKI-1 renal and 23.4 µM in the test with HCT-15 colon.
As for `COc1ccc([N+](=O)[O-])c2c(NCCCN(C)C)ccnc12`, the TGI with BT-549 breast was 6.45 µM; in the test on MDA-N, 27 µM; in the test with SF-295 CNS it was 24.8 µM; with SN12C renal, 34 µM; in the test with PC-3 prostate, 30.8 µM; in the test on HOP-92 NSCLC it was 4.38 µM. In addition, the TGI came to 30.6 µM in the test on 786-0 renal, 42.9 µM in the test with CAKI-1 renal and 4.95 µM in the test on HCT-15 colon.
As for `CC(=O)Nc1ccc2nc(-c3ccccn3)c(-c3ccccn3)nc2c1`, the TGI in the test on BT-549 breast, in the test with MDA-N, with SF-295 CNS, in the test on SN12C renal, with PC-3 prostate and with HOP-92 NSCLC was more than 100 µM each time. Also, the TGI in the test with 786-0 renal, with CAKI-1 renal and in the test with HCT-15 colon was more than 100 µM throughout.
Regarding `O=C(CN(C(=O)OC12CC3CC(CC(C3)C1)C2)C(=O)OC12CC3CC(CC(C3)C1)C2)Oc1ccc([N+](=O)[O-])cc1`, the TGI with BT-549 breast, in the test on MDA-N, in the test with SF-295 CNS, in the test on SN12C renal, in the test with PC-3 prostate and with HOP-92 NSCLC was more than 100 µM each time. Besides, the TGI in the test with 786-0 renal, in the test on CAKI-1 renal and in the test with HCT-15 colon was more than 100 µM each time.
As for `O=c1c2ccccc2[nH]n1Cc1ccccc1`, the TGI with BT-549 breast, in the test with MDA-N, with SF-295 CNS, with SN12C renal, in the test on PC-3 prostate and with HOP-92 NSCLC was more than 100 µM each time. The TGI in the test with 786-0 renal, with CAKI-1 renal and in the test on HCT-15 colon was more than 100 µM each time.
